# According to patent US7579469B2, “Glucocorticoid mimetics, methods of making them, pharmaceutical compositions, and uses thereof” (Boehringer Ingelheim Pharmaceuticals, Inc., priority 2003, dated 2009):
# Key:
# [1] = target: T1, human glucocorticoid receptor (GR) complex (Homo sapiens, UniProt P04150); assay: Glucocorticoid receptor competitive binding assay (fluorescence polarization); conditions: competition with TAMRA-labeled dexamethasone
# T1 construct: made in house; host or cells: insect expression system (baculovirus lysate)
# T1 sequence (P04150 1-777): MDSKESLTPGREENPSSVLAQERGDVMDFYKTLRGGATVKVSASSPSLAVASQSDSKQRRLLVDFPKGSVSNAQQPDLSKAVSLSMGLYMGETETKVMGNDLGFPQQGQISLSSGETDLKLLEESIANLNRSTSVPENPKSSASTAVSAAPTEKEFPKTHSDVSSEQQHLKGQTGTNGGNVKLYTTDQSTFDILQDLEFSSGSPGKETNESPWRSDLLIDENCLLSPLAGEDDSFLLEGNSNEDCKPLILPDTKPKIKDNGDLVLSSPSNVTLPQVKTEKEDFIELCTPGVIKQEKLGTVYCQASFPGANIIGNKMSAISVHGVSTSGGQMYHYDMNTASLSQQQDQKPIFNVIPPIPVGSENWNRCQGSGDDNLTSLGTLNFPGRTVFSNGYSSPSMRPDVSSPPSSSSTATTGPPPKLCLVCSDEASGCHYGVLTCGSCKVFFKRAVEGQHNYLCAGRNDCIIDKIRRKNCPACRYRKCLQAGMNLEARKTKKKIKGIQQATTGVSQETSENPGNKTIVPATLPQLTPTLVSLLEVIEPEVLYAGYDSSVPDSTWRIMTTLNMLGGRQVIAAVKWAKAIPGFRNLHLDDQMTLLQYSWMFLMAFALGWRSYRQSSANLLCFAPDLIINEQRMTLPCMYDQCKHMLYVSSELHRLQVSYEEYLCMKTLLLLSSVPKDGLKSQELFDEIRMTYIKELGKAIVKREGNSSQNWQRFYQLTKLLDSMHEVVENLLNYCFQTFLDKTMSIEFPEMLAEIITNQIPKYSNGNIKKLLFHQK
# How it was run: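 Fluorescence polarization competition against TAMRA-labelled dexamethasone (50 μL of 15 nM added) for human GR complex from baculovirus insect-cell lysate, diluted 1:170, in TES/KCl/molybdate buffer, pH 7.4.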
# [2] = tested on: Osteocalcin Production from Osteoblast Cell Line MG-63; assay: Inhibition of osteocalcin production from osteoblast cell line MG-63; assay type: cell-based, human; conditions: MG-63 cells, Vitamin D 10 nM, 48 hours, osteocalcin ELISA
# Experimental: Representative compounds of the invention have been tested and have shown activity as modulators of the glucocorticoid receptor function in one or more of the above assays. […] 7. Inhibition of Osteocalcin Production from Osteoblast Cell Line MG-63
# Human osteosarcoma MG-63 cells (ATCC, Cat. No. CRL-1427) are plated on 96 well plates at 20,000 cells per well the day before use in 200 μL media of 99% D-MEM/F-12 (Gibco-Invitrogen, Cat. No. 11039-021), supplemented with 1% penicillin and streptomycin (Gibco-Invitrogen, Cat. No. 15140-122), 10 μg/mL Vitamin C (Sigma, Cat. No. A4544), and 1% charcoal filtered Fetal Bovine Serum (HyClone, Cat. No. SH30068.02). The next day, wells are replaced with fresh media. Cells are treated with Vitamin D (Sigma, Cat. No. D1530) to a final concentration of 10 nM, and with the test compounds in concentrations of 10^−6 M to 10^−9 M, in a total volume of 200 μL per well. Samples are done in duplicates. […] Positive control wells receive Vitamin D only, without compounds, and represent maximum (100%) amount of osteocalcin production. Plates are incubated at 37° C. incubator for 48 hours and supernatants are harvested at the end of incubation. Amounts of osteocalcin in the supernatants are determined by the Glype osteocalcin ELISA kit (Zymed, Cat. No. 99-0054) according to manufacture's protocol. Inhibition of osteocalcin by test compounds is expressed in percentage relative to positive controls. IC50 values of the test compounds are derived by non-lineal curve fitting.
melting point [°C],activity in the GR binding assay [1],Compound,inhibit the vitamin D stimulated production of osteocalcin [2]
150 to 155,–,"CC(C)(CC(O)(Cn1ccc(=O)c2ccccc21)C(F)(F)F)c1cc(F)ccc1OC(F)F (stereo not drawn) [Example 28, 1-[4-(2-difluoromethoxy-5-fluorophenyl)-2-hydroxy-4-methyl-2-trifluoromethylpentyl]-1H-quinolin-4-one]",–
–,potent activity,"CC(C)(CC(O)(Cn1ccc(=O)c2ccccc21)C(F)(F)F)c1cc(S(C)(=O)=O)cc2c1OCC2 (stereo not drawn) [1-[2-Hydroxy-4-(5-methanesulfonyl-2,3-dihydrobenzofuran-7-yl)-4-methyl-2-trifluoromethylpentyl]-1H-quinolin-4-one]",inhibit
> 225,–,"COc1ccc(F)cc1C(C)(C)CC(O)(Cn1cc(C)c(=O)c2ccccc21)C(F)(F)F (stereo not drawn) [Example 26, 1-[4-(5-fluoro-2-methoxyphenyl)-2-hydroxy-4-methyl-2-trifluoromethylpentyl]-3-methyl-1H-quinolin-4-one]",–
141 to 144,–,"COc1ccc(F)cc1C(C)(C)CC(O)(Cn1[nH]c(=O)c2ccccc21)C(F)(F)F (stereo not drawn) [Example 23, 1-[4-(5-fluoro-2-methoxyphenyl)-2-hydroxy-4-methyl-2-trifluoromethylpentyl]-1,2-dihydroindazol-3-one]",–

# The remaining lines, values behind:
Compound,melting point [°C],activity in the GR binding assay [1],inhibit the vitamin D stimulated production of osteocalcin [2]
CC(C)(CC(O)(Cn1ccc(=O)c2ccccc21)C(F)(F)F)c1cc(F)ccc1O (stereo not drawn) [1-[4-(5-Fluoro-2-hydroxyphenyl)-2-hydroxy-4-methyl-2-trifluoromethylpentyl]-1H-quinolin-4-one],–,potent activity,inhibit
"CC(C)(CC(O)(Cn1ccc(=O)c2ccccc21)C(F)(F)F)c1cc(Br)cc2c1OCC2 (stereo not drawn) [1-[4-(5-Bromo-2,3-dihydrobenzofuran-7-yl)-2-hydroxy-4-methyl-2-trifluoromethylpentyl]-1H-quinolin-4-one]",–,potent activity,inhibit
CC(C)(CC(O)(Cn1ccc(=O)c2ccc(F)cc21)C(F)(F)F)c1cc(F)ccc1O (stereo not drawn) [7-Fluoro-1-[4-(5-fluoro-2-hydroxyphenyl)-2-hydroxy-4-methyl-2-trifluoromethylpentyl]-1H-quinolin-4-one],–,potent activity,inhibit
"CCOc1ccc(F)cc1C(C)(C)CC(O)(Cn1ccc(=O)c2ccccc21)C(F)(F)F (stereo not drawn) [Example 27, 1-[4-(2-ethoxy-5-fluorophenyl)-2-hydroxy-4-methyl-2-trifluoromethylpentyl]-1H-quinolin-4-one]",195 to 196,–,–
